Measurements from patent publication US9994581B2, “Bromodomain inhibitors” (AbbVie Inc., priority 2013, dated 2018).
Where two headings read alike, the source gives them in different places.

Legend:
BRD4 (BDI-BDII_K57-K550) = BRD4 (BDI-BDII_K57-K550) (Homo sapiens, UniProt O60885); assay: TR-FRET bromodomain binding assay; conditions: His-tagged tandem bromodomain, Alexa647-labeled probe; Ki calculated from IC50s, probe Kd and probe concentration
Protocol: A time-resolved fluorescence resonance energy transfer (TR-FRET) assay was used to determine the affinities of compounds of the Examples listed in Table 1 for the tandem domain of bromodomain BRD4. […] An Alexa647-labeled BET-inhibitor was used as the fluorescent probe in the assay.
TR-FRET data were normalized to the means of 24 no-compound controls (“high”) and 8 controls containing 1 μM un-labeled probe (“low”). Percent inhibition was plotted as a function of compound concentration and the data were fit with the 4 parameter logistic equation to obtain IC50s. Inhibition constants (Ki) were calculated from the IC50s, probe Kd and probe concentration. Typical Z′ values were between 0.65 and 0.75.

[1] = tested on: breast cancer cell line MX-1; assay: MX-1 cell line proliferation assay (3-day, Cell Titer Glo); assay type: cell-based; conditions: 72 hours, read-out: Cellular proliferation: EC50
Protocol: The impact of compounds of the Examples on cancer cell proliferation was determined using the breast cancer cell line MX-1 (ATCC) in a 3-day proliferation assay and the data are reported in Table 1. […] For compound testing, MX-1 cells were plated in 96-well black bottom plates at a density of 5000 cells/well in 90 μL of culture media and incubated at 37° overnight to allow cell adhesion and spreading. Compound dilution series were prepared in DMSO via a 3-fold serial dilution from 3 mM to 0.1 μM. The DMSO dilution series were then diluted 1:100 in phosphate buffered saline, and 10 μL of the resulted solution were added to the appropriate wells of the MX-1 cell plate. The final compound concentrations in the wells were 3, 1, 0.3, 0.1, 0.03, 0.01, 0.003, 0.001, 0.0003, and 0.0001 μM, or 1, 0.3, 0.1, 0.03, 0.01, 0.003, 0.001, 0.0003, 0.0001, and 0.00003 μM.
Luminescence readings from the Cell Titer Glo assay were normalized to the DMSO treated cells and analyzed using the GraphPad Prism software with sigmoidal curve fitting to obtain EC50s.

Ki (BRD4 (BDI-BDII_K57-K550)) [µM] | EC50 ([1]; Homo sapiens, MX1, MX-1 cells) [µM] | EC50 ([1]; MX-1 cells) [µM] | SMILES
0.00382 | 0.0107 | – | Cn1cc2c(cc1=O)OCCCCc1cc(F)cc(F)c1Oc1ncc(CS(C)(=O)=O)cc1-2 [Example A-43, 11,13-difluoro-2-methyl-17-((methylsulfonyl)methyl)-6,7,8,9-tetrahydrobenzo[11,12][1,6]dioxacyclododecino[2,3-b:4,5-c′]dipyridin-3(2H)-one]
0.172 | > 1 | – | Cn1cc2c(cc1=O)OCCNC(=O)c1cc(Cl)ccc1Oc1ccc(N)cc1-2 [Example B-3, 17-amino-11-chloro-2-methyl-7,8-dihydrodibenzo[f,i]pyrido[3,4-k][1,8,4]dioxazacyclododecine-3,9(2H,6H)-dione]
0.00075 | 0.00576 | – | CCS(=O)(=O)Nc1ccc2c(c1)-c1cn(C)c(=O)cc1OCCCCc1ccc(Cl)cc1O2 [Example A-52, N-(12-chloro-2-methyl-3-oxo-2,3,6,7,8,9-hexahydrodibenzo[4,5:7,8][1,6]dioxacyclododecino[3,2-c]pyridin-17-yl)ethanesulfonamide]
0.0077 | 0.0309 | – | Cn1cc2c(cc1=O)OCCOCc1cc(Cl)ccc1Oc1ccc(CS(C)(=O)=O)cc1-2 [Example B-17, 11-chloro-2-methyl-17-((methylsulfonyl)methyl)-6,7-dihydro-2H-dibenzo[6,7:9,10][1,4,8]trioxacyclododecino[11,12-c]pyridin-3(9H)-one]
0.00632 | 0.0475 | – | CCS(=O)(=O)c1ccc2c(c1)-c1nn(C)c(=O)cc1OCCCCc1cc(Cl)ccc1O2 [Example A-53, 11-chloro-17-(ethylsulfonyl)-2-methyl-6,7,8,9-tetrahydrodibenzo[4,5:7,8][1,6]dioxacyclododecino[3,2-c]pyridazin-3(2H)-one]
0.00692 | 0.0333 | – | CCS(=O)(=O)c1cnc2c(c1)-c1cn(C)c(=O)cc1OCCCCc1cc(Cl)ccc1O2 [Example A-34, 11-chloro-17-(ethylsulfonyl)-2-methyl-6,7,8,9-tetrahydrobenzo[11,12][1,6]dioxacyclododecino[2,3-b:4,5-c′]dipyridin-3(2H)-one]
0.00122 | 0.00405 | – | Cn1cc2c(cc1=O)OCCCCc1ccc(Cl)cc1Oc1ccc(NS(C)(=O)=O)cc1-2 [Example A-44, N-(12-chloro-2-methyl-3-oxo-2,3,6,7,8,9-hexahydrodibenzo[4,5:7,8][1,6]dioxacyclododecino[3,2-c]pyridin-17-yl)methanesulfonamide]
0.00334 | 0.0164 | – | CCS(=O)(=O)c1ccc2c(c1)-c1cn(C)c(=O)cc1OCC/C=C/c1ccc(Cl)cc1O2 [Example A-24, (E)-12-chloro-17-(ethylsulfonyl)-2-methyl-6,7-dihydrodibenzo[4,5:7,8][1,6]dioxacyclododecino[3,2-c]pyridin-3(2H)-one]
0.00225 | 0.00782 | – | CCS(=O)(=O)Nc1ccc2c(c1)-c1cn(C)c(=O)cc1OC(C)CCCc1cc(Cl)ccc1O2 (centres unmarked) [Example A-17, N-(11-chloro-2,6-dimethyl-3-oxo-2,3,6,7,8,9-hexahydrodibenzo[4,5:7,8][1,6]dioxacyclododecino[3,2-c]pyridin-17-yl)ethanesulfonamide]
0.00161 | 0.0454 | – | CCS(=O)(=O)Nc1ccc2c(c1)-c1cn(C)c(=O)cc1OCCN(C(C)=O)Cc1cc(Cl)ccc1O2 [Example B-7, N-(8-acetyl-11-chloro-2-methyl-3-oxo-2,3,6,7,8,9-hexahydrodibenzo[f,i]pyrido[3,4-k][1,8,4]dioxazacyclododecin-17-yl)ethanesulfonamide]
0.00157 | 0.00364 | – | CCS(=O)(=O)Nc1ccc2c(c1)-c1cn(C)c(=O)cc1OCCCCc1cc(F)ccc1O2 [Example A-49, N-(11-fluoro-2-methyl-3-oxo-2,3,6,7,8,9-hexahydrodibenzo[4,5:7,8][1,6]dioxacyclododecino[3,2-c]pyridin-17-yl)ethanesulfonamide]
0.0197 | 0.162 | – | CCS(=O)(=O)c1ccc2c(c1)-c1nn(C)c(=O)cc1OCCCCc1cc(C#N)ccc1O2 [Example A-54, 17-(ethylsulfonyl)-2-methyl-3-oxo-2,3,6,7,8,9-hexahydrodibenzo[4,5:7,8][1,6]dioxacyclododecino[3,2-c]pyridazine-11-carbonitrile]
0.00166 | 0.0152 | – | CCS(=O)(=O)Nc1ccc2c(c1)-c1cn(C)c(=O)cc1OCCC/C=C/c1cc(Cl)ccc1O2 [Example A-16, (E)-N-(12-chloro-2-methyl-3-oxo-3,6,7,8-tetrahydro-2H-dibenzo[4,5:7,8][1,6]dioxacyclotridecino[3,2-c]pyridin-18-yl)ethanesulfonamide]
0.0352 | 0.347 | – | CCNC(=O)Nc1ccc2c(c1)-c1cn(C)c(=O)cc1OCCCc1cc(Cl)ccc1O2 [Example A-10, 1-(10-chloro-2-methyl-3-oxo-3,6,7,8-tetrahydro-2H-dibenzo[4,5:7,8][1,6]dioxacycloundecino[3,2-c]pyridin-16-yl)-3-ethylurea]
0.00201 | 0.0184 | – | CCS(=O)(=O)Nc1ccc2c(c1)-c1nn(C)c(=O)cc1OCCCCc1cc(F)cc(F)c1O2 [Example A-58, N-(11,13-difluoro-2-methyl-3-oxo-2,3,6,7,8,9-hexahydrodibenzo[4,5:7,8][1,6]dioxacyclododecino[3,2-c]pyridazin-17-yl)ethanesulfonamide]
0.00307 | 0.0104 | – | CCS(=O)(=O)c1ccc2c(c1)-c1cn(C)c(=O)cc1OCCCCc1ccccc1O2 [Example A-4, 17-(ethylsulfonyl)-2-methyl-6,7,8,9-tetrahydrodibenzo[4,5:7,8][1,6]dioxacyclododecino[3,2-c]pyridin-3(2H)-one]
0.00127 | 0.00786 | – | CCS(=O)(=O)c1ccc2c(c1)-c1cn(C)c(=O)cc1OCCCCc1ccc(F)cc1O2 [Example A-23, 17-(ethylsulfonyl)-12-fluoro-2-methyl-6,7,8,9-tetrahydrodibenzo[4,5:7,8][1,6]dioxacyclododecino[3,2-c]pyridin-3(2H)-one]
0.0147 | > 1 | – | Cn1cc2c(cc1=O)OCCCCc1cc(Cl)ccc1Oc1ncc(C(=O)O)cc1-2 [Example A-38, 11-chloro-2-methyl-3-oxo-2,3,6,7,8,9-hexahydrobenzo[11,12][1,6]dioxacyclododecino[2,3-b:4,5-c′]dipyridine-17-carboxylic acid]
0.0122 | 0.0628 | – | Cn1cc2c(cc1=O)OCCCCc1cc(Cl)ccc1Oc1ncccc1-2 [Example A-27, 11-chloro-2-methyl-6,7,8,9-tetrahydrobenzo[11,12][1,6]dioxacyclododecino[2,3-b:4,5-c′]dipyridin-3(2H)-one]
0.00064 | 0.0473 | – | CCNC(=O)N1CCOc2cc(=O)n(C)cc2-c2cc(NS(=O)(=O)CC)ccc2Oc2ccc(Cl)cc2C1 [Example B-9, 11-chloro-N-ethyl-17-[(ethylsulfonyl)amino]-2-methyl-3-oxo-2,3,6,7-tetrahydrodibenzo[f,i]pyrido[3,4-k][1,8,4]dioxazacyclododecine-8(9H)-carboxamide]
0.234 | – | 0.709 | CCS(=O)(=O)c1ccc2c(c1)-c1cn(C)c(=O)cc1OCCc1ccccc1O2 [Example A-2, 3-(ethylsulfonyl)-6-methyl-10,11-dihydrodibenzo[4,5:7,8][1,6]dioxecino[3,2-c]pyridin-7(6H)-one]
0.0257 | 0.109 | – | Cn1cc2c(cc1=O)OCCCc1cc(Cl)ccc1Oc1ccc(N)cc1-2 [Example A-7, 16-amino-10-chloro-2-methyl-7,8-dihydro-2H-dibenzo[4,5:7,8][1,6]dioxacycloundecino[3,2-c]pyridin-3(6H)-one]
0.00201 | 0.0149 | – | CCS(=O)(=O)Nc1ccc2c(c1)-c1cn(C)c(=O)cc1OCCCCc1ccncc1O2 [Example A-26, N-(2-methyl-3-oxo-2,3,6,7,8,9-hexahydrobenzo[4,5][1,6]dioxacyclododecino[3,2-c:7,8-c′]dipyridin-17-yl)ethanesulfonamide]
0.00157 | 0.0171 | – | CCS(=O)(=O)Nc1ccc2c(c1)-c1cn(C)c(=O)cc1OCCN(S(C)(=O)=O)Cc1cc(Cl)ccc1O2 [Example B-6, N-[11-chloro-2-methyl-8-(methylsulfonyl)-3-oxo-2,3,6,7,8,9-hexahydrodibenzo[f,i]pyrido[3,4-k][1,8,4]dioxazacyclododecin-17-yl]ethanesulfonamide]
0.00224 | 0.00372 | – | Cn1cc2c(cc1=O)OCCCCc1cc(F)ccc1Oc1ccc(NS(C)(=O)=O)cc1-2 [Example A-50, N-(11-fluoro-2-methyl-3-oxo-2,3,6,7,8,9-hexahydrodibenzo[4,5:7,8][1,6]dioxacyclododecino[3,2-c]pyridin-17-yl)methanesulfonamide]
